Reference: ChEMBL document CHEMBL1201862, “PubChem BioAssay data set” (2004)
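A five-concentration, 48-hour dose response in 96-well plates underlies each endpoint, interpolated linearly between surrounding concentrations. Here, GI50 denotes the concentration required for 50% inhibition of growth.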 Calls of active or inactive are those of the source. Cut-off read from the data, not from the text of the source: active = GI50 up to about 1.1 µM and inactive = higher.

Experiments:
Assay in all cases: NCI tumour cell line growth inhibition, 48 h
A549 = tested on: A549
ACHN = tested on: ACHN
DLD-1 = tested on: DLD-1
DMS-114 = tested on: DMS-114
DMS-273 = tested on: DMS-273
DU-145 = tested on: DU-145
HL-60 = tested on: HL-60
HOP-18 = tested on: HOP-18
HT-29 = tested on: HT-29
KM-20L2 = tested on: KM-20L2
KM12 = tested on: KM12
LOX IMVI = tested on: LOX IMVI
M19-MEL = tested on: M19-MEL
MDA-MB-231 = tested on: MDA-MB-231
MOLT-4 = tested on: MOLT-4
Malme-3M = tested on: Malme-3M
NCI/ADR-RES = tested on: NCI/ADR-RES
OVCAR-5 = tested on: OVCAR-5
OVCAR-8 = tested on: OVCAR-8
SF-295 = tested on: SF-295
SF-539 = tested on: SF-539
SK-MEL-2 = tested on: SK-MEL-2
SNB-78 = tested on: SNB-78
T47D = tested on: T47D
XF498 = tested on: XF498
786-0 = tested on: 786-0
A498 = tested on: A498
BT-549 = tested on: BT-549
CAKI-1 = tested on: CAKI-1
CCRF-CEM = tested on: CCRF-CEM
COLO 205 = tested on: COLO 205
EKVX = tested on: EKVX
HCC 2998 = tested on: HCC 2998
HCT-116 = tested on: HCT-116
HCT-15 = tested on: HCT-15
HOP-62 = tested on: HOP-62
HOP-92 = tested on: HOP-92
Hs-578T = tested on: Hs-578T
IGROV-1 = tested on: IGROV-1
K562 = tested on: K562
M14 = tested on: M14
MCF7 = tested on: MCF7
MDA-MB-435 = tested on: MDA-MB-435
MDA-N = tested on: MDA-N
NCI-H226 = tested on: NCI-H226
NCI-H23 = tested on: NCI-H23
NCI-H460 = tested on: NCI-H460
NCI-H522 = tested on: NCI-H522
OVCAR-3 = tested on: OVCAR-3
OVCAR-4 = tested on: OVCAR-4
PC-3 = tested on: PC-3
RPMI-8226 = tested on: RPMI-8226
RXF 393 = tested on: RXF 393
SF-268 = tested on: SF-268
SK-MEL-28 = tested on: SK-MEL-28
SK-MEL-5 = tested on: SK-MEL-5
SK-OV-3 = tested on: SK-OV-3
SN12C = tested on: SN12C
SNB-19 = tested on: SNB-19
SNB-75 = tested on: SNB-75
SR = tested on: SR
SW-620 = tested on: SW-620
TK-10 = tested on: TK-10
U-251 = tested on: U-251
UACC-257 = tested on: UACC-257
UACC-62 = tested on: UACC-62
UO-31 = tested on: UO-31

## NC(CN(O)N=O)C(=O)O (stereo unspecified)
A549
  GI50: 202 nM (active)
ACHN
  GI50: 1.85 µM (inactive)
DLD-1
  GI50: 1.04 µM (active)
DMS-114
  GI50: 309 nM (active)
DMS-273
  GI50: 817 nM (active)
DU-145
  GI50: 135 µM (inactive)
HL-60
  GI50: 9.4 µM (inactive)
HOP-18
  GI50: 331 µM (inactive)
HT-29
  GI50: 9.23 µM (inactive)
KM-20L2
  GI50: 19 µM (inactive)
KM12
  GI50: 472 nM (active)
LOX IMVI
  GI50: 267 nM (active)
M19-MEL
  GI50: 14.1 µM (inactive)
MDA-MB-231
  GI50: 55.7 µM (inactive)
MOLT-4
  GI50: 20.1 µM (inactive)
Malme-3M
  GI50: 54.5 µM (inactive)
NCI/ADR-RES
  GI50: 17.1 µM (inactive)
OVCAR-5
  GI50: 5.22 µM (inactive)
OVCAR-8
  GI50: 12.2 µM (inactive)
SF-295
  GI50: 5.01 µM (inactive)
SF-539
  GI50: 8.57 µM (inactive)
SK-MEL-2
  GI50: 95.9 µM (inactive)
SNB-78
  GI50: 21.8 µM (inactive)
T47D
  GI50: 157 µM (inactive)
XF498
  GI50: 5.71 µM (inactive)

## COc1cc2c(c(OC)c1OC)-c1ccc(SC)c(=O)cc1C(NC=O)CC2 (stereo unspecified)
786-0
  GI50: < 10 nM (active)
A498
  GI50: < 0.01 µM (active)
A549
  GI50: < 10 nM (active)
ACHN
  GI50: < 0.01 µM (active)
BT-549
  GI50: 239 nM (active)
CAKI-1
  GI50: 0.0183 µM (active)
CCRF-CEM
  GI50: 0.015 µM (active)
COLO 205
  GI50: < 0.01 µM (active)
DLD-1
  GI50: < 0.01 µM (active)
DMS-114
  GI50: < 10 nM (active)
DMS-273
  GI50: < 10 nM (active)
DU-145
  GI50: < 0.01 µM (active)
EKVX
  GI50: 3.6 µM (inactive)
HCC 2998
  GI50: < 0.01 µM (active)
HCT-116
  GI50: < 0.01 µM (active)
HCT-15
  GI50: < 0.01 µM
HL-60
  GI50: < 0.01 µM (active)
HOP-18
  GI50: > 45.7 µM (inactive)
HOP-62
  GI50: < 0.01 µM (active)
HOP-92
  GI50: < 0.01 µM (active)
HT-29
  GI50: < 0.01 µM (active)
Hs-578T
  GI50: < 10 nM (active)
IGROV-1
  GI50: < 0.01 µM (active)
K562
  GI50: < 0.01 µM (active)
KM-20L2
  GI50: < 0.01 µM (active)
KM12
  GI50: < 10 nM (active)
LOX IMVI
  GI50: < 10 nM (active)
M14
  GI50: < 10 nM (active)
M19-MEL
  GI50: < 0.01 µM (active)
MCF7
  GI50: < 0.0107 µM (active)
MDA-MB-231
  GI50: < 0.01 µM (active)
MDA-MB-435
  GI50: < 10 nM (active)
MDA-N
  GI50: < 10 nM (active)
MOLT-4
  GI50: < 0.01 µM (active)
Malme-3M
  GI50: < 0.01 µM (active)
NCI-H226
  GI50: 0.0465 µM (active)
NCI-H23
  GI50: < 0.01 µM (active)
NCI-H460
  GI50: < 0.01 µM (active)
NCI-H522
  GI50: < 0.01 µM (active)
NCI/ADR-RES
  GI50: 0.0393 µM (active)
OVCAR-3
  GI50: < 0.01 µM (active)
OVCAR-4
  GI50: 66.4 µM (inactive)
OVCAR-5
  GI50: 0.164 µM (active)
OVCAR-8
  GI50: < 0.01 µM (active)
PC-3
  GI50: < 10 nM (active)
RPMI-8226
  GI50: < 0.01 µM (active)
RXF 393
  GI50: 0.0463 µM (active)
SF-268
  GI50: < 0.01 µM (active)
SF-295
  GI50: < 0.01 µM (active)
SF-539
  GI50: < 0.01 µM (active)
SK-MEL-28
  GI50: 0.462 µM (active)
SK-MEL-2
  GI50: < 0.01 µM (active)
SK-MEL-5
  GI50: < 0.01 µM (active)
SK-OV-3
  GI50: 0.0371 µM (active)
SN12C
  GI50: < 0.01 µM (active)
SNB-19
  GI50: 0.0344 µM (active)
SNB-75
  GI50: < 0.0442 µM (active)
SNB-78
  GI50: < 0.01 µM (active)
SR
  GI50: < 10 nM (active)
SW-620
  GI50: < 0.0275 µM (active)
T47D
  GI50: 54.1 µM (inactive)
TK-10
  GI50: 2.02 µM (inactive)
U-251
  GI50: < 0.01 µM (active)
UACC-257
  GI50: 0.249 µM (active)
UACC-62
  GI50: < 0.01 µM (active)
UO-31
  GI50: 0.0188 µM (active)
XF498
  GI50: < 0.01 µM (active)

## NC(=O)c1ncn2c1NC(=O)CC2
A498
  GI50: > 100 µM (inactive)
A549
  GI50: > 100000 nM (inactive)
CAKI-1
  GI50: > 100 µM (inactive)
CCRF-CEM
  GI50: > 100 µM (inactive)
COLO 205
  GI50: > 100 µM (inactive)
DLD-1
  GI50: > 100 µM (inactive)
DMS-114
  GI50: > 100000 nM (inactive)
DMS-273
  GI50: > 100000 nM (inactive)
EKVX
  GI50: > 100 µM (inactive)
HCC 2998
  GI50: > 100 µM (inactive)
HCT-116
  GI50: > 100 µM (inactive)
HCT-15
  GI50: > 100 µM
HL-60
  GI50: > 100 µM (inactive)
HOP-18
  GI50: > 100 µM (inactive)
HOP-62
  GI50: > 100 µM (inactive)
HOP-92
  GI50: > 100 µM (inactive)
HT-29
  GI50: > 100 µM (inactive)
IGROV-1
  GI50: > 100 µM (inactive)
K562
  GI50: > 100 µM (inactive)
KM-20L2
  GI50: > 100 µM (inactive)
KM12
  GI50: > 100000 nM (inactive)
LOX IMVI
  GI50: > 100000 nM (inactive)
M19-MEL
  GI50: > 100 µM (inactive)
MCF7
  GI50: > 100 µM (inactive)
MOLT-4
  GI50: > 100 µM (inactive)
Malme-3M
  GI50: > 100 µM (inactive)
NCI-H226
  GI50: > 100 µM (inactive)
NCI-H23
  GI50: > 100 µM (inactive)
NCI-H460
  GI50: > 100 µM (inactive)
NCI-H522
  GI50: > 100 µM (inactive)
NCI/ADR-RES
  GI50: > 100 µM (inactive)
OVCAR-3
  GI50: > 100 µM (inactive)
OVCAR-4
  GI50: > 100 µM (inactive)
OVCAR-5
  GI50: > 100 µM (inactive)
OVCAR-8
  GI50: > 100 µM (inactive)
RPMI-8226
  GI50: > 100 µM (inactive)
RXF 393
  GI50: > 100 µM (inactive)
SF-268
  GI50: > 100 µM (inactive)
SF-295
  GI50: > 100 µM (inactive)
SF-539
  GI50: > 100 µM (inactive)
SK-MEL-28
  GI50: > 100 µM (inactive)
SK-MEL-2
  GI50: > 100 µM (inactive)
SK-MEL-5
  GI50: > 100 µM (inactive)
SK-OV-3
  GI50: > 100 µM (inactive)
SN12C
  GI50: > 100 µM (inactive)
SNB-19
  GI50: > 100 µM (inactive)
SNB-75
  GI50: > 100 µM (inactive)
SNB-78
  GI50: > 45.3 µM (inactive)
SW-620
  GI50: > 100 µM (inactive)
U-251
  GI50: > 100 µM (inactive)
UACC-257
  GI50: > 100 µM (inactive)
UACC-62
  GI50: > 67.8 µM (inactive)
UO-31
  GI50: > 100 µM (inactive)
XF498
  GI50: > 100 µM (inactive)
